Experimental findings from ChEMBL document CHEMBL5107972 (RSC Med Chem, 2022) are described below.

Values after ≈ are worked out from the molar mass of the structure shown. Active and inactive are the calls of the source. The calls are words filed in the database; no cut-off is given here.

Assay [1] relates to Mycobacterium tuberculosis. In words: Antitubercular activity against Mycobacterium tuberculosis H37Rv ATCC 27294 assessed as inhibition of bacterial growth incubated for 7 days by Presto blue resazurin microtiter plate assay. The assay is classed as functional. The following applies: H37Rv ATCC 27294, 168 h, time 7 day.
The test system of the next assay is Staphylococcus aureus. In words: Antibacterial activity against Staphylococcus aureus ATCC 29213 assessed as inhibition of bacterial growth incubated for 16 to 18 hrs by CLSI based microdilution method. The following applies: time 16-18 hrs. The assay is classed as functional. (In general: Dilution methods test growth across graded concentrations, often in twofold steps.)

The subject of assay [2] is Mycobacterium tuberculosis. The assay can be described thus: Bactericidal activity against Mycobacterium tuberculosis H37Rv ATCC 27294 assessed as reduction in colony formation at 1 to 10 times of MIC incubated for 6 to 7 days by time-kill assay. The following applies: time 6-7 day. The assay is classed as functional, organism-based.

As to `O=C(O)c1cccc(-n2cc(CSc3nc(=O)c4cc(Cl)cc([N+](=O)[O-])c4s3)nn2)c1`, the MIC was greater than 64 µg/mL in assay [1] and no less than 64 µg/mL with Staphylococcus aureus.
As for `O=c1nc(SCc2cn(-c3ccc(O)cc3)nn2)sc2c([N+](=O)[O-])cc(Cl)cc12`, the results for the minimum inhibitory concentration (MIC) (in assay [1]; in the assay with Staphylococcus aureus) were 64 µg/mL (≈ 143 µM) and no less than 64 µg/mL, respectively.
Consider `COc1ccc(-n2cc(CSc3nc(=O)c4cc(Cl)cc([N+](=O)[O-])c4s3)nn2)cc1OC`, for which the minimum inhibitory concentration (MIC) in assay [1] is 32 µg/mL (≈ 65 µM); in the assay with Staphylococcus aureus it was no less than 64 µg/mL.
On to `O=c1ccc2cc(-n3cc(CSc4nc(=O)c5cc(Cl)cc([N+](=O)[O-])c5s4)nn3)ccc2o1`, for which the MIC in assay [1] was 32 µg/mL (≈ 64 µM); with Staphylococcus aureus, no less than 64 µg/mL.
For `O=c1nc(SCc2cn(-c3ccc(N4CCCCC4)c(F)c3)nn2)sc2c([N+](=O)[O-])cc(Cl)cc12`, in that order: 64 µg/mL (≈ 120 µM) and no less than 64 µg/mL.
Regarding `O=c1nc(SCc2cn(-c3ccccc3F)nn2)sc2c([N+](=O)[O-])cc(Cl)cc12`, the MIC is 16 µg/mL (≈ 35.6 µM) in assay [1] and no less than 64 µg/mL with Staphylococcus aureus.
For `O=c1nc(SCc2cn(-c3ccccc3Cl)nn2)sc2c([N+](=O)[O-])cc(Cl)cc12`, in that order: 32 µg/mL (≈ 68.6 µM) and no less than 64 µg/mL.
Take `Cc1ccc(-n2cc(CSc3nc(=O)c4cc(Cl)cc([N+](=O)[O-])c4s3)nn2)cc1`: the MIC in assay [1] is 8 µg/mL (≈ 17.9 µM); in the assay with Staphylococcus aureus, no less than 64 µg/mL.
For `O=C(O)c1ccc(-n2cc(CSc3nc(=O)c4cc(Cl)cc([N+](=O)[O-])c4s3)nn2)cc1O` the same measures were greater than 64 µg/mL and no less than 64 µg/mL.
Regarding `CC[C@@H](CO)NCCN[C@@H](CC)CO` [ETHAMBUTOL], in assay [1], the minimal inhibitory concentration (MIC) was found to be 1 µg/mL (≈ 4.89 µM).
As for `COc1ccc(-n2cc(CSc3nc(=O)c4cc(Cl)cc([N+](=O)[O-])c4s3)nn2)cc1`, the results for the minimal inhibitory concentration (MIC) (in assay [1]; with Staphylococcus aureus) were 32 µg/mL (≈ 69.3 µM) and no less than 64 µg/mL, respectively.
On to `O=c1nc(SCc2cn(-c3cccc([N+](=O)[O-])c3)nn2)sc2c([N+](=O)[O-])cc(Cl)cc12`, for which the MIC in assay [1] is 32 µg/mL (≈ 67.1 µM); in the assay on Staphylococcus aureus, no less than 64 µg/mL.
Regarding `CC(=O)c1cccc(-n2cc(CSc3nc(=O)c4cc(Cl)cc([N+](=O)[O-])c4s3)nn2)c1`, the MIC was 32 µg/mL (≈ 67.5 µM) in assay [1] and no less than 64 µg/mL in the assay on Staphylococcus aureus.
Take `N#Cc1cccc(-n2cc(CSc3nc(=O)c4cc(Cl)cc([N+](=O)[O-])c4s3)nn2)c1`: the results for the minimal inhibitory concentration (MIC) (in assay [1]; in the assay with Staphylococcus aureus) were 64 µg/mL (≈ 140 µM) and no less than 64 µg/mL, respectively.
For `O=c1nc(SCc2cn(-c3ccc(Oc4ccccc4)cc3)nn2)sc2c([N+](=O)[O-])cc(Cl)cc12` the same measures were 32 µg/mL (≈ 61.1 µM) and no less than 64 µg/mL.
For `O=c1nc(SCc2cn(-c3ccc(F)cc3)nn2)sc2c([N+](=O)[O-])cc(Cl)cc12`, in that order: 8 µg/mL (≈ 17.8 µM) and no less than 64 µg/mL.
With `CN[C@@H]1[C@H](O[C@H]2[C@H](O[C@H]3[C@H](O)[C@@H](O)[C@H](N=C(N)N)[C@@H](O)[C@@H]3N=C(N)N)O[C@@H](C)[C@]2(O)C=O)O[C@@H](CO)[C@H](O)[C@H]1O` [STREPTOMYCIN], the MIC in assay [1] turned out to be 1 µg/mL (≈ 1.72 µM).
In the case of `COc1cc(-n2cc(CSc3nc(=O)c4cc(Cl)cc([N+](=O)[O-])c4s3)nn2)cc(OC)c1OC`, the MIC in assay [1] is 64 µg/mL (≈ 123 µM); with Staphylococcus aureus, no less than 64 µg/mL.
For `O=c1nc(SCc2cn(-c3cccc(Cl)c3)nn2)sc2c([N+](=O)[O-])cc(Cl)cc12`, in that order: 16 µg/mL (≈ 34.3 µM) and no less than 64 µg/mL.
For `Cc1cccc(-n2cc(CSc3nc(=O)c4cc(Cl)cc([N+](=O)[O-])c4s3)nn2)c1` the same measures were 8 µg/mL (≈ 17.9 µM) and no less than 64 µg/mL.
Consider `O=C(O)c1ccc(-n2cc(CSc3nc(=O)c4cc(Cl)cc([N+](=O)[O-])c4s3)nn2)cc1`, for which the MIC is greater than 64 µg/mL in assay [1] and no less than 64 µg/mL with Staphylococcus aureus.
For `NS(=O)(=O)c1cccc(-n2cc(CSc3nc(=O)c4cc(Cl)cc([N+](=O)[O-])c4s3)nn2)c1` the same measures were greater than 64 µg/mL and no less than 64 µg/mL.
`O=c1nc(SCc2cn(-c3ccc4ccccc4c3)nn2)sc2c([N+](=O)[O-])cc(Cl)cc12`: the minimal inhibitory concentration (MIC) in assay [1] is 64 µg/mL (≈ 133 µM); in the assay on Staphylococcus aureus, no less than 64 µg/mL.
Regarding `CO[C@H]1/C=C/O[C@@]2(C)Oc3c(C)c(O)c4c(O)c(c(/C=N/N5CCN(C)CC5)c(O)c4c3C2=O)NC(=O)/C(C)=C\C=C\[C@H](C)[C@H](O)[C@@H](C)[C@@H](O)[C@@H](C)[C@H](OC(C)=O)[C@@H]1C` [RIFAMPIN], the MIC in assay [1] came out at 0.06 µg/mL (≈ 0.0729 µM). The outcome in assay [2] was Active.
For the compound `O=c1nc(SCc2cn(-c3ccc([N+](=O)[O-])cc3)nn2)sc2c([N+](=O)[O-])cc(Cl)cc12`, the figures for the minimal inhibitory concentration (MIC) (in assay [1]; in the assay on Staphylococcus aureus) were 16 µg/mL (≈ 33.6 µM) and no less than 64 µg/mL, respectively.
For `COc1cc(OC)cc(-n2cc(CSc3nc(=O)c4cc(Cl)cc([N+](=O)[O-])c4s3)nn2)c1` the same measures were greater than 64 µg/mL and no less than 64 µg/mL.
For `O=c1nc(SCc2cn(-c3ccc(Br)cc3)nn2)sc2c([N+](=O)[O-])cc(Cl)cc12` the same measures were 4 µg/mL (≈ 7.83 µM) and no less than 64 µg/mL.
For `NS(=O)(=O)c1ccc(-n2cc(CSc3nc(=O)c4cc(Cl)cc([N+](=O)[O-])c4s3)nn2)cc1`, in that order: greater than 64 µg/mL and no less than 64 µg/mL.
`O=c1nc(SCc2cn(-c3ccc(F)c(Cl)c3)nn2)sc2c([N+](=O)[O-])cc(Cl)cc12`: the MIC was 8 µg/mL (≈ 16.5 µM) in assay [1] and no less than 64 µg/mL with Staphylococcus aureus.
Consider `NNC(=O)c1ccncc1` [ISONIAZID], for which the minimal inhibitory concentration (MIC) in assay [1] is 0.03 µg/mL (≈ 0.219 µM).
Consider `CC(C)Oc1cccc(-n2cc(CSc3nc(=O)c4cc(Cl)cc([N+](=O)[O-])c4s3)nn2)c1`, for which the MIC in assay [1] is 64 µg/mL (≈ 131 µM); in the assay on Staphylococcus aureus, no less than 64 µg/mL.
For `O=c1nc(SCc2cn(-c3cccnc3)nn2)sc2c([N+](=O)[O-])cc(Cl)cc12`, in that order: 32 µg/mL (≈ 73.9 µM) and no less than 64 µg/mL.
In the case of `O=c1nc(SCc2cn(-c3ccc(F)c(F)c3)nn2)sc2c([N+](=O)[O-])cc(Cl)cc12`, the MIC in assay [1] is 8 µg/mL (≈ 17.1 µM); in the assay on Staphylococcus aureus, no less than 64 µg/mL.
In the case of `CCCCCCOc1ccc(-n2cc(CSc3nc(=O)c4cc(Cl)cc([N+](=O)[O-])c4s3)nn2)cc1`, the figures for the MIC (in assay [1]; in the assay on Staphylococcus aureus) were 8 µg/mL (≈ 15 µM) and no less than 64 µg/mL, respectively.
For `Cc1ccc(-n2cc(CSc3nc(=O)c4cc(Cl)cc([N+](=O)[O-])c4s3)nn2)c(C)c1`, in that order: 32 µg/mL (≈ 69.6 µM) and no less than 64 µg/mL.
For `O=c1nc(SCc2cn(-c3ccccc3)nn2)sc2c([N+](=O)[O-])cc(Cl)cc12`, in that order: 32 µg/mL (≈ 74.1 µM) and no less than 64 µg/mL.
For `O=c1nc(SCc2cn(-c3ccc(N4CCOCC4)c(F)c3)nn2)sc2c([N+](=O)[O-])cc(Cl)cc12`, in that order: 64 µg/mL (≈ 120 µM) and no less than 64 µg/mL.
With `O=c1nc(SCc2cn(-c3ccc(N4CCCCC4)cc3)nn2)sc2c([N+](=O)[O-])cc(Cl)cc12`, the MIC in assay [1] was 64 µg/mL (≈ 124 µM); with Staphylococcus aureus, no less than 64 µg/mL.
For `O=c1nc(SCc2cn(-c3cccc(F)c3)nn2)sc2c([N+](=O)[O-])cc(Cl)cc12` the same measures were 8 µg/mL (≈ 17.8 µM) and no less than 64 µg/mL.
For `O=c1nc(SCc2cn(-c3cccc(C(F)(F)F)c3)nn2)sc2c([N+](=O)[O-])cc(Cl)cc12` the same measures were 8 µg/mL (≈ 16 µM) and no less than 64 µg/mL.

Usually MIC stands for the lowest concentration found to suppress growth.
